From patent publication US20260265055A1, “Sulfine-Based Compounds for Generating Hydrogen Persulfide” (Brown University, priority 2023, published 2026)

Experiments:
[1] = Kinetic study of the reaction between TTS and H2S (UV-Vis, 380 nm); assay type: physicochemical; set-up: unit not given here; settings: TTS 50 μM, Na2S 5 mM, PBS pH 7.4, room temperature; average of 3 trials
Experimental: FIG. 1A depicts UV-Vis absorbance spectra changes of the reaction between TTS (100 μM) and H2S (200 μM) over 1 min intervals. FIG. 1B depicts representative time-dependent [TTS] changes based on UV-Vis absorption changes at 380 nm of the reaction between TTS (50 μM) and Na2S (5 mM). FIG. 1C depicts representative time-dependent −ln([TTS]/[TTS]0) changes based on UV-Vis absorption changes at 380 nm of the reaction between TTS (50 μM) and Na2S (5 mM). […] See Kolb, H. C. et al., Click chemistry: diverse chemical function from a few good reactions. Angew. Chem. Int. Ed. 2001, 40, 2004-2021.
Kinetic study of the reaction between TTS and H2S: TTS (10 μL, 10 mM in DMSO solution, final concentration=50 μM) and Na2S (20 μL, 500 mM in MilliQ H2O, final concentration=5 mM), reacted in PBS buffer (50 mM, pH=7.4) (2 mL) at room temperature. The kinetics were detected by UV-Vis absorbance spectrum (λ=380 nm) based on the decrease of TTS. This reaction can be seen as a pseudo-first order reaction; the second-order k constant (k) was calculated by: […]
The final k reported above was calculated by taking the average of the k values from 3 trials. • To determine [TTS] at each time point: […]

[2] = biological target: T1, GAPDH (Oryctolagus cuniculus, UniProt P46406); assay: GAPDH protein S-persulfidation (SSP4 fluorescence, LC-MS/MS); assay type: biochemical, rabbit
T1 construct: GAPDH (from rabbit muscle, #G2267, Sigma-Aldrich); purchased Sigma-Aldrich G2267; host or cells: rabbit muscle (tissue-purified)
T1 sequence (P46406 whole entry): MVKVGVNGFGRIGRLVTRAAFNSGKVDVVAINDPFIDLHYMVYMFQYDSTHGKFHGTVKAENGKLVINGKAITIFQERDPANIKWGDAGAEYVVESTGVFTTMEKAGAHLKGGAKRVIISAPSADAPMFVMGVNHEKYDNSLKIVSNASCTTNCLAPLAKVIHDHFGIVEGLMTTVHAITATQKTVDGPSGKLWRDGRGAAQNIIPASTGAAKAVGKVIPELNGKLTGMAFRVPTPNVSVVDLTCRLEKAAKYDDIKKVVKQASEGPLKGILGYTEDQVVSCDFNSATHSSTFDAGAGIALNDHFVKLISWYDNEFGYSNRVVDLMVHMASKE
Experimental: One of the primary functions of H2S2 is to induce protein S-persulfidation. Existing methods treat proteins with Na2S2 directly to obtain the persulfidated proteins. The present disclosure contemplates the use of TTS and H2S to persulfidate proteins as a comparison with Na2S2. GAPDH was used as the protein model and its persulfidation was evaluated by SSP4 using a protocol described in Shieh, M. et al., Shining a light on SSP4: a comprehensive analysis and biological applications for the detection of sulfane sulfurs. Redox Biol. 2022, 56, 102433 and Ni, X. et al., A sweet H2S/H2O2 dual release system and specific protein S-persulfidation mediated by thioglucose/glucose oxidase. J. Am. Chem. Soc. 2021, 143, 13325-13332. Reduced GAPDH (100 μM) was individually treated with 10 eq. of TTS+Na2S or Na2S2, as well as control reagents (TTS or Na2S only). The protein samples were then purified using Zeba Spin Desalting Columns (7K MWCO), diluted (to 10 μM), and treated with SSP4 (5 μM). Fluorescence signals were recorded to reflect persulfidation levels. […] To provide further evidence of persulfidation in the GAPDH system, TTS+Na2S-treated GAPDH was alkylated with HPE-IAM to stabilize the protein persulfides.
216 μL of PBS (50 mM, pH 7.4) was added to 3.9 mg of GAPDH (from rabbit muscle, #G2267, Sigma-Aldrich) to obtain a concentration of 500 μM (MW: 36 kDa). DTT (10 mM in DMSO, 11.35 μL) was added for a final equal concentration with the GAPDH. The solution was incubated in the dark at room temperature for 30 min. Zeba 7K MWCO spin columns were prepared and used according to manufacturer's instructions with 3 PBS washes. Excess reductant was removed by column purification with the Zeba 7K MWCO columns. The resulting reduced protein concentration was determined by the absorbance at 280 nm (εmM=30.4 mM-1 cm-1) using the Nanodrop One Microvolume UV-Vis Spectrophotometer (ThermoFisher Scientific). For controls, reduced GAPDH was treated with NEM (1:5 equiv.) and incubated at rt in the dark for 30 min before excess NEM was removed by the Zeba 7K MWCO columns. Next, the reduced protein was diluted to a final concentration of 100 μM in a final volume of 100 μL and treated with TTS (10 μL of 10 mM in DMSO for a final concentration of 1 mM), Na2S (10 μL of 10 mM in MilliQ H2O for a final concentration of 1 mM), both TTS and Na2S, or Na2S2 (10 μL of 10 mM in MilliQ H2O for a final concentration of 1 mM). For example, if the reduced protein (361 μM) was only to be treated with TTS, 62.3 μL of PBS (50 mM, pH 7.4) would first be added to an Eppendorf tube, followed by 27.7 μL of protein, and followed by 10 μL of TTS. TTS+Na2S and Na2S2 samples were also prepared at the concentrations above without any protein, where PBS (50 mM, pH 7.4) was used in place of the proteins (volume-wise). Samples were incubated at room temperature for 30 min in the dark before being purified by Zeba 7K MWCO columns (three times to ensure proper removal of excess treatment molecules) and quantified by absorbance. […] All samples were then incubated with SSP4 (5 μL of 100 μM in DMSO for a final concentration of 5 μM) in individual wells of a black clear flat bottom 96-well plate. The final volume was 100 μL. For example, if the persulfidated protein (99.5 μM) was to be examined, 84.95 μL of PBS (50 mM, pH 7.4) would first be added to a well, followed by 10.05 μL of protein, and then followed by 5 μL of SSP4. Incubation occurred at room temperature in the dark for 30 min before being measured on the SpectraMax iD3 microplate reader (ex: 485 nm; em: 525 nm).

COC(=O)c1ccc(=S=O)sc1 [TTS, 2H-thiopyran-2-thione sulfine]
second-order rate constant k2 of the reaction between TTS and H2S [1]: 2.7
GAPDH persulfidation signal compared with Na2S2 ([2]; TTS 1 mM + Na2S 1 mM vs Na2S2 1 mM, one-way ANOVA): significantly higher signals than Na2S2
GAPDH persulfidation by LC-MS/MS after HPE-IAM alkylation and trypsin digestion ([2]; TTS+Na2S-treated GAPDH): successful protein persulfidation
SSP4 fluorescence of persulfidated GAPDH ([2]; reduced GAPDH 100 μM treated with TTS 1 mM + Na2S 1 mM): strong fluorescence
SSP4 fluorescence of persulfidated GAPDH ([2]; reduced GAPDH 100 μM treated with the reagent only (1 mM)): did not give any notable fluorescence
